From publication PMC8708751, “Hit Identification of a Novel Quinazoline Sulfonamide as a Promising EphB3 Inhibitor: Design, Virtual Combinatorial Library, Synthesis, Biological Evaluation, and Docking Simulation Studies” (Pharmaceuticals, 2021)
Like-named read-outs stand apart in the source and are kept apart here.

Assays:
EGFR kinase = molecular target: T1, EGFR kinase (Homo sapiens, UniProt P00533); assay: EGFR kinase inhibition assay (HotSpot); format: biochemical; settings: for inhibition at 10 µM / Average % Enzyme Inhibition (Relative to DMSO Controls) at 10 µM: 10 µM compound; for inhibition at 10 µM: 10 µM ATP as printed, read-out: Average % Enzyme Inhibition (Relative to DMSO Controls) at 10 µM; for Average % Enzyme Inhibition (Relative to DMSO Controls) at 10 µM: 10 M [sic] ATP
T1 construct: purchased Reaction Biology Co. (Kinase HotSpot service)
T1 sequence (P00533 25-1210): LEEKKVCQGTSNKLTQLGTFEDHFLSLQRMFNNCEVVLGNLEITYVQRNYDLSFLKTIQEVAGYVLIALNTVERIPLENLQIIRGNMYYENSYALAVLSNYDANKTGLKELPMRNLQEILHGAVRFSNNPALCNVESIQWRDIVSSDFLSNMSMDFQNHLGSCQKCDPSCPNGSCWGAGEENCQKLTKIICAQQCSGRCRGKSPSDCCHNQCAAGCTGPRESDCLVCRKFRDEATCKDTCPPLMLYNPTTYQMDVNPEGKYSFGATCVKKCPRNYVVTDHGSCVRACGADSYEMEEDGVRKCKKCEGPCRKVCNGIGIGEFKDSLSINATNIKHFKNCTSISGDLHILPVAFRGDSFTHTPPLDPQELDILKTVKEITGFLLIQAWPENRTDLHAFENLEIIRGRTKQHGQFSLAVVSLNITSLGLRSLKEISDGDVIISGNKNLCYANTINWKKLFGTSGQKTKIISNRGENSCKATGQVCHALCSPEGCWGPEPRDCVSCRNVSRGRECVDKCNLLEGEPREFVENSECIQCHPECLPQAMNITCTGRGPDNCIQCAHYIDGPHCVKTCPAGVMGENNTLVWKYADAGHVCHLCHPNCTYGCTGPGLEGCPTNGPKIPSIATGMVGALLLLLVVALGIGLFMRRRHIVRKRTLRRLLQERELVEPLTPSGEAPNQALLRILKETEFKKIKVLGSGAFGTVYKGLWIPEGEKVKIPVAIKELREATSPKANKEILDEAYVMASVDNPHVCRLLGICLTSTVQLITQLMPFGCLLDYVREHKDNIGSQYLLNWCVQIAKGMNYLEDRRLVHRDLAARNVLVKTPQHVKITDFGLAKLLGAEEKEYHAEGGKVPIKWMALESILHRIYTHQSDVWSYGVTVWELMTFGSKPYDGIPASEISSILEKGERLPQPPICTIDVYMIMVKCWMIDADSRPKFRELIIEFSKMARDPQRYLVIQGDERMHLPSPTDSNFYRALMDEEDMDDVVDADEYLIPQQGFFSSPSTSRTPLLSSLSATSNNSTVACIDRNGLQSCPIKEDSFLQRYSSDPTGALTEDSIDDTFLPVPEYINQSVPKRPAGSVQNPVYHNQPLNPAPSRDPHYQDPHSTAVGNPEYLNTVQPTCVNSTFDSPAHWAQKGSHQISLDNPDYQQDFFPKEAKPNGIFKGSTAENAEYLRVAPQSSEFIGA

EphB3 kinase = molecular target: T2, EphB3 kinase (Homo sapiens, UniProt P54753); assay: EphB3 kinase inhibition assay (HotSpot); format: biochemical; settings: EphB3 kinase, 10 µM compound, 10 µM ATP; read-out: Average % Enzyme Inhibition at 10 µM (Relative to DMSO Control)
T2 construct: purchased Reaction Biology Co. (Kinase HotSpot service)
T2 sequence (P54753 34-998): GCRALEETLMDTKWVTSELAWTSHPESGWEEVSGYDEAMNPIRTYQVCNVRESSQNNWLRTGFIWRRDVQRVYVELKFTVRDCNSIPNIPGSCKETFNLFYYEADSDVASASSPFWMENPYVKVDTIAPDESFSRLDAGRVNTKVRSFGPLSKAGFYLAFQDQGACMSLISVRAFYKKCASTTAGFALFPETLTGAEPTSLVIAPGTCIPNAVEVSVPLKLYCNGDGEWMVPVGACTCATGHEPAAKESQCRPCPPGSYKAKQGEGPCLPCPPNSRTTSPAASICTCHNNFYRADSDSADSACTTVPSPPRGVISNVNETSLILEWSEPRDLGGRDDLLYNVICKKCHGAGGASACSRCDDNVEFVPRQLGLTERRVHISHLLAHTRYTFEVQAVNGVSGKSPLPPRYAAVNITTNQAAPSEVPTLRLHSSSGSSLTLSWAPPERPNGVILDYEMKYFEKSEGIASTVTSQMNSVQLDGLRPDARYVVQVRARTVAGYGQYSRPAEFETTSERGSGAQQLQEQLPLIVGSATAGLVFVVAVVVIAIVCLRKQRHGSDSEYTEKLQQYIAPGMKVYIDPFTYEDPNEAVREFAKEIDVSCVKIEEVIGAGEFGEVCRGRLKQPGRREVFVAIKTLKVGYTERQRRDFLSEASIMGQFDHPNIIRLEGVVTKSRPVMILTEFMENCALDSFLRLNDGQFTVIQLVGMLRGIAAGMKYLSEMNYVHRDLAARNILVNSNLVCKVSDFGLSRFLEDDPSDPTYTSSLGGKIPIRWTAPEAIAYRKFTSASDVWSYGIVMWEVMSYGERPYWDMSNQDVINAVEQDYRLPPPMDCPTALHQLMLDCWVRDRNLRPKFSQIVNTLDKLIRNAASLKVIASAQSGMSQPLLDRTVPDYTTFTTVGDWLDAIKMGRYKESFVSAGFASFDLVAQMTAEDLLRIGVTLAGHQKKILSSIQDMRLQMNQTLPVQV
Experimental: The synthesized compounds were subjected to in vitro screening over EphB3 kinase. A single dose of 10 µM concentration of each target compound was used in EphB3 kinase inhibition assay, at 10 µM ATP, applying HotSpot^SM technology.
The HotSpot assay platform contains specific kinase/substrate pairs along with required cofactors. Base reaction buffer: 20 mM Hepes (pH 7.5), 10 mM MgCl2, 1 mM EGTA, 0.02% Brij35, 0.02 mg/mL BSA, 0.1 mM Na3VO4, 2 mM DTT, 1% DMSO. The tested compounds were dissolved in 100% DMSO to specific concentration. The serial dilution was conducted by Integra Viaflo Assist in DMSO (Sigma-Aldrich, Burlington, MA, USA). The reaction mixture containing the examined compound and 33P-ATP was incubated at room temperature for 2 h, and radioactivity was detected by filter-binding method. Kinase activity data were expressed as the percent remaining kinase activity in test samples compared to vehicle (dimethyl sulfoxide) reactions. IC50 values and curve fits were obtained using Prism (GraphPad Software, San Diego, CA, USA).

[1] = EGFR kinase, dose dependent assay, read-out: IC50
[2] = EGFR, read-out: EC50 of the curve fit printed in Figure 6 (IC50 per legend)

Row | inhibition at 10 µM (EGFR kinase; EGFR kinase) | inhibition at 10 µM (EphB3 kinase) | melting point | Average % Enzyme Inhibition (Relative to DMSO Controls) at 10 µM (EGFR kinase; EGFR kinase) | IC50 (EGFR kinase; [1]) | IC50 (EGFR kinase; [2]) | SMILES
1 | -13.2 ± 4.31% | 26.97 ± 0.24% | 322.2 to 324.5 °C |  |  |  | NS(=O)(=O)c1ccc(Nc2ncnc3ccc(Br)cc23)cc1 [Compound 3a, 4-((6-Bromoquinazolin-4-yl)amino)benzenesulfonamide]
2 | 0.56 ± 4.32% | 25.81 ± 0.24% | 315.1 to 316.2 °C |  |  |  | NS(=O)(=O)c1ccc(Nc2ncnc3ccc(-c4cccnc4)cc23)cc1 [Compound 4a, 4-((6-(Pyridin-3-yl)quinazolin-4-yl)amino)benzenesulfonamide]
3 | 25.2 ± 1.25% | 26.7 ± 0.45% |  |  |  |  | NS(=O)(=O)c1ccc(Nc2ncnc3ccc(-c4ccc(C=O)o4)cc23)cc1 [Compound 4b, 4-((6-(5-Formylfuran-2-yl)quinazolin-4-yl)amino)benzenesulfonamide]
4 | > 50% | 18.9 ± 1.09% | 228.1 to 229.8 °C | 65.76 ± 0.98% | 2760 nM | 2760 nM | NS(=O)(=O)c1ccc(Nc2ncnc3cc(-c4ccc(CN5CCOCC5)cc4)ccc23)cc1 [Compound 4d, 4-((7-(4-(Morpholinomethyl)phenyl)quinazolin-4-yl)amino)benzenesulfonamide]
5 | > 50% | -21.35 ± 0.09% | 267.5 to 269 °C | 63.28 ± 0.21% | 1060 nM | 1060 nM | NS(=O)(=O)c1cccc(Nc2ncnc3cc(-c4cccc(CN5CCOCC5)c4)ccc23)c1 [Compound 4e, 3-((7-(3-(Morpholinomethyl)phenyl)quinazolin-4-yl)amino)benzenesulfonamide]
6 | 4.57 ± 2.16% | 23.5 ± 5.36% | 320 to 321.5 °C |  |  |  | NS(=O)(=O)c1cccc(Nc2ncnc3ccc(-c4cccnc4)cc23)c1 [Compound 4f, 3-((6-(Pyridin-3-yl)quinazolin-4-yl)amino)benzenesulfonamide]
